Laboratory results published in US10251889B2, “Substituted pyrazolo[1,5-a]pyrimidine compounds as Trk kinase inhibitors” (Array BioPharma, Inc., priority 2009, dated 2019).
Like-named read-outs stand apart in the source and are kept apart here.

What was measured:
Format in all cases: biochemical
[1] = target: Jak1 (GST-tagged human Jak1 kinase domain, amino acids 866-1154) (Homo sapiens (Human), UniProt P23458); test: Jak1 inhibition assay (Omnia kinase assay); conditions: read-out: Jak1 (% inhibition at 1000 nM); Table 2; 1000 nM test compound
Experimental: (§1) The assays described in Examples C, D, E and F for the determination of JAK1, JAK2, JAK3 and Tyk2 kinase activity, respectively, utilized the Omnia® Kinase fluorescence peptide substrate-based technology (Invitrogen). […] The reactions were therefore read at excitation 360 nm and emission was measured at 485 nm every 50 seconds for 45 minutes using a PerkinElmer EnVision Multilabel Plate Reader.
(§2) The final buffer conditions for each of the JAK1, JAK2, JAK3 and Tyk2 assays were as follows: 25 mM HEPES, pH 7.4, 10 mM MgCl2, 0.01% Triton X-100 and 1 mM DTT.
(§3) Compounds were prepared at 50× the final concentration in DMSO by conducting 3-fold serial dilutions from a 500-μM or 1000-μM intermediate dilution to give a 10-point dosing curve having a high dose of 10 or 20 μM. Two-μL aliquots of these were transferred to a fresh plate for a ten-fold intermediate dilution with assay buffer. Five-μL aliquots of the diluted compounds were then transferred to 20-μL of assay mixtures described in Examples C, D, E and F for a final concentration of DMSO of 2%. A standard or reference compound was typically included on each assay plate to validate that plate. For each plate, percent of control (POC) values were calculated for each well according to the following equation:
(§4) where Xmax=Average Uninhibited Controls • Xmin=Average Background IC50's were estimated from the POC's using a standard 4-parameter logistic model:
(§5) where A=Minimum Y (Bottom Asymptote) • B=Maximum Y (Top Asymptote) • C=EC50 • D=Slope Factor • X=Compound Concentration (nM) • Y=POC
(§6) The IC50 is defined as the concentration of inhibitor at which the POC equals 50 for the fitted curve.
Compounds of Formula I were screened for their ability to inhibit Jak1 using the general enzyme inhibition assay method, in which the assay mixture contained 500 μM ATP, 8 μM Omnia® Y12 peptide (Catalog # IVGN KPZ3121C; Invitrogen Corporation, Carlsbad, Calif.) and 5 nM Jak1 in a total volume of 20 μL. […] (catalog # IVGN PV4774).

[2] = target: Jak2 (human Jak2 kinase domain, amino acids 808-1132) (Homo sapiens (Human), UniProt O60674); test: Jak2 inhibition assay (Omnia kinase assay); conditions: 1000 nM test compound
[3] = target: Jak3 (GST-tagged human Jak3 kinase domain, amino acids 781-1124) (Homo sapiens (Human), UniProt P52333); test: Jak3 inhibition assay (Omnia kinase assay); conditions: read-out: Jak3 (% inhibition at 1000 nM); Table 2; 1000 nM test compound
Experimental: as §1, §2, §3, §4, §5, §6
Compounds of Formula I were screened for their ability to inhibit Jak3 using the general enzyme inhibition assay method, in which the assay mixture contained 500 μM ATP, 10 μM Omnia® Y7 peptide (Catalog # IVGN KNZ3071C, Invitrogen Corporation, Carlsbad, Calif.) and 1.5 nM Jak3 in a total volume of 20 μL. GST-tagged human Jak3 kinase domain comprising amino acids 781-1124 was purchased from Invitrogen Corporation, Carlsbad, Calif. (catalog # IVGN PV3855).

[4] = target: Tyk2 (human Tyk2 kinase domain, amino acids 886 to 1187) (Homo sapiens (Human), UniProt P29597); test: Tyk2 inhibition assay (Omnia kinase assay); conditions: read-out: Tyk2 (% inhibition at 1000 nM); Table 2; 1000 nM test compound
Experimental: as §1, §2, §3, §4, §5, §6
Compounds of Formula I were screened for their ability to inhibit Tyk2 using the general enzyme inhibition assay method, in which the assay mixture contained 500 μM ATP, 8 μM Omnia® Y12 peptide (Catalog # IVGN KPZ3121C; Invitrogen Corporation, Carlsbad, Calif.) and 1 nM Tyk2 in a total volume of 20 μL. Human Tyk2 kinase domain, comprising amino acids 886 to 1187 with 10 additional histidine residues (histidine tag) on the carboxy terminus, was expressed and purified from baculovirus in-house at Array BioPharma Inc. (Boulder, Colo.). The histidine tag was cleaved after purification using standard conditions.

[5] = read-out: Jak2 (% inhibition at 1000 nM), Table 2
[6] = read-out: Jak2 Enzyme (% inhibition at 1000 nM), Table 1

Sequence of Tyk2 (human Tyk2 kinase domain, amino acids 886 to 1187) (P29597 886-1187): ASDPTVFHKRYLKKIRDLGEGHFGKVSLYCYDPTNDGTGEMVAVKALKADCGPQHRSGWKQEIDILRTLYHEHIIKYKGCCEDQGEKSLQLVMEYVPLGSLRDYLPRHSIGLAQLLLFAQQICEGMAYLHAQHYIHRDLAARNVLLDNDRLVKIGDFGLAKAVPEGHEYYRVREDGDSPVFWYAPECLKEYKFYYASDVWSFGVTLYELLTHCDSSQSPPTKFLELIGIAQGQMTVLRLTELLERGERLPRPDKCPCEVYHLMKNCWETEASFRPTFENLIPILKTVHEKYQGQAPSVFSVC
Sequence of Jak3 (GST-tagged human Jak3 kinase domain, amino acids 781-1124) (P52333 781-1124): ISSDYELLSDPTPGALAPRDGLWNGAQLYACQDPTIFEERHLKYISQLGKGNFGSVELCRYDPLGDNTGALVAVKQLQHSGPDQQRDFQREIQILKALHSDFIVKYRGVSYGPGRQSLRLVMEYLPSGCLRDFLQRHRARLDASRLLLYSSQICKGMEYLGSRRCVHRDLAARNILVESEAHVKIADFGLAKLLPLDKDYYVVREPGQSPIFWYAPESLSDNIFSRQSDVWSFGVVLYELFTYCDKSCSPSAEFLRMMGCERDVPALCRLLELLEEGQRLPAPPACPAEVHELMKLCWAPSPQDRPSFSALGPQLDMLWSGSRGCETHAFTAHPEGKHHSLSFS
Sequence of Jak1 (GST-tagged human Jak1 kinase domain, amino acids 866-1154) (P23458 866-1154): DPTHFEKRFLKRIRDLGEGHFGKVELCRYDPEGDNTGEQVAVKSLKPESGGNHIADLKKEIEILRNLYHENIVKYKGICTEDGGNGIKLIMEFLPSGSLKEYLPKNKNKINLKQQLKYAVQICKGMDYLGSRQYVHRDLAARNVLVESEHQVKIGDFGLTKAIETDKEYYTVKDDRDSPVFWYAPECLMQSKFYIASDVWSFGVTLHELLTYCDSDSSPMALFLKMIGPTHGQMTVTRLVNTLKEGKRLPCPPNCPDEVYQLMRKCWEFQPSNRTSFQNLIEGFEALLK
Sequence of Jak2 (human Jak2 kinase domain, amino acids 808-1132) (O60674 808-1132): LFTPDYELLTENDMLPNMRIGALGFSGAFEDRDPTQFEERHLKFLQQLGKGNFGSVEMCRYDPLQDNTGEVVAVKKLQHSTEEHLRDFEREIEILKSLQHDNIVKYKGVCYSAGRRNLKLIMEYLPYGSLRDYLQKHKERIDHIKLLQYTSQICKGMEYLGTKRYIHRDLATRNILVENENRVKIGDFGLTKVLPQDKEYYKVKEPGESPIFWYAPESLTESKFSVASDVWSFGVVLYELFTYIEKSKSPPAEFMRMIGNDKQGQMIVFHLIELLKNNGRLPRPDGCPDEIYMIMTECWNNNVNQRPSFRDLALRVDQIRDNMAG

Compound | inhibition at 1 µM [1] | inhibition at 1 µM [2, 5] | inhibition at 1 µM [2, 6] | inhibition at 1 µM [3] | inhibition at 1 µM [4]
Cc1ncc(F)cc1[C@H]1CCCN1c1ccn2ncc(C(=O)NC3(C)CC3)c2n1 [Example 190, (R)-5-(2-(5-fluoro-2-methylpyridin-3-yl)pyrrolidin-1-yl)-N-(1-methylcyclopropyl)pyrazolo[1,5-a]pyrimidine-3-carboxamide] | 14.3% | 33.9% | 28.4% | 7.2% | 13.4%
NC(=O)c1cnn2ccc(N3CCC[C@@H]3c3cc(F)ccc3F)nc12 [Example 30, (R)-5-(2-(2,5-difluorophenyl)pyrrolidin-1-yl)pyrazolo[1,5-a]pyrimidine-3-carboxamide] | 13.4% | 30.4% | 25.7% | 2.9% | 11.3%
C[C@H](NC(=O)c1cnn2ccc(N3CCC[C@@H]3c3cncc(F)c3)nc12)C1CC1 [Example 124, N-((S)-1-cyclopropylethyl)-5-((R)-2-(5-fluoropyridin-3-yl)pyrrolidin-1-yl)pyrazolo[1,5-a]pyrimidine-3-carboxamide] | 36.4% | 72.3% | 53.3% | 7.2% | 16.2%
O=C(NC1(C(F)(F)F)CC1)c1cnn2ccc(N3CCC[C@@H]3c3cncc(F)c3)nc12 [Example 98, (R)-5-(2-(5-fluoropyridin-3-yl)pyrrolidin-1-yl)-N-(1-(trifluoromethyl)cyclopropyl)pyrazolo[1,5-a]pyrimidine-3-carboxamide] | 8.8% | 27.8% | 23.7% | 5.5% | 9.2%
O=C(NCC1CC1)c1cnn2ccc(N3CCC[C@@H]3c3cncc(F)c3)nc12 [Example 106, (R)-N-(cyclopropylmethyl)-5-(2-(5-fluoropyridin-3-yl)pyrrolidin-1-yl)pyrazolo[1,5-a]pyrimidine-3-carboxamide] | 8.2% | 21% | 8% | 9.7% | 14.8%
O=C(NC1CC1)c1cnn2ccc(N3CCC[C@@H]3c3cncc(F)c3)nc12 [Example 52, (R)—N-cyclopropyl-5-(2-(5-fluoropyridin-3-yl)pyrrolidin-1-yl)pyrazolo[1,5-a]pyrimidine-3-carboxamide] | 8.6% | 13% | 9.4% | 0.8% | 13.8%
C[C@@H](NC(=O)c1cnn2ccc(N3CCC[C@@H]3c3cncc(F)c3)nc12)C1CC1 [Example 123, N-((R)-1-cyclopropylethyl)-5-((R)-2-(5-fluoropyridin-3-yl)pyrrolidin-1-yl)pyrazolo[1,5-a]pyrimidine-3-carboxamide] | 22% | 49.1% | 38.8% | 8.9% | 14.4%
COc1ncc(F)cc1[C@H]1CCCN1c1ccn2ncc(C(=O)N[C@H]3CC[C@H](O)CC3)c2n1 [Example 140, 5-((R)-2-(5-fluoro-2-methoxypyridin-3-yl)pyrrolidin-1-yl)-N-((trans)-4-hydroxycyclohexyl)pyrazolo[1,5-a]pyrimidine-3-carboxamide] | 64.2% | 98.5% | 90.1% | 20.2% | 34.8%
Cc1ncc(F)cc1[C@H]1CCCN1c1ccn2ncc(C(=O)N[C@H]3CC[C@H](O)CC3)c2n1 [Example 194, 5-((R)-2-(5-fluoro-2-methylpyridin-3-yl)pyrrolidin-1-yl)-N-((trans)-4-hydroxycyclohexyl)pyrazolo[1,5-a]pyrimidine-3-carboxamide] | 7.4% | 37.6% | 31.2% | 2.6% | 8.1%
CC(C)NC(=O)c1cnn2ccc(N3CCC[C@@H]3c3cncc(F)c3)nc12 [Example 93, (R)-5-(2-(5-fluoropyridin-3-yl)pyrrolidin-1-yl)-N-isopropylpyrazolo[1,5-a]pyrimidine-3-carboxamide] | 19.7% | 42.2% | 34.7% | 10.6% | 17.2%
CNC(=O)c1cnn2ccc(N3CCC[C@@H]3c3cncc(F)c3)nc12 [Example 114, (R)-5-(2-(5-fluoropyridin-3-yl)pyrrolidin-1-yl)-N-methylpyrazolo[1,5-a]pyrimidine-3-carboxamide] | 10.9% | 15.6% | 5% | 8.5% | 11.4%
CC1(NC(=O)c2cnn3ccc(N4CCC[C@@H]4c4cncc(F)c4)nc23)CC1 [Example 91, (R)-5-(2-(5-fluoropyridin-3-yl)pyrrolidin-1-yl)-N-(1-methylcyclopropyl)pyrazolo[1,5-a]pyrimidine-3-carboxamide] | 20.3% | 42.1% | 34.9% | 8.3% | 14.8%
COc1ncc(F)cc1[C@H]1CCCN1c1ccn2ncc(C(=O)NCCCO)c2n1 [Example 148, (R)-5-(2-(5-fluoro-2-methoxypyridin-3-yl)pyrrolidin-1-yl)-N-(3-hydroxypropyl)pyrazolo[1,5-a]pyrimidine-3-carboxamide] |  |  | 44.3% |  | 
CNC(=O)c1cnn2ccc(N3CCC[C@@H]3c3cc(F)ccc3F)nc12 [Example 10, (R)-5-(2-(2,5-difluorophenyl)pyrrolidin-1-yl)-N-methylpyrazolo[1,5-a]pyrimidine-3-carboxamide] |  |  | 47.5% |  | 
COc1ccc(F)cc1[C@H]1CCCN1c1ccn2ncc(C(=O)NC[C@H](O)CO)c2n1 [Example 55, N—((S)-2,3-dihydroxypropyl)-5-((R)-2-(5-fluoro-2-methoxyphenyl)pyrrolidin-1-yl)pyrazolo[1,5-a]pyrimidine-3-carboxamide] |  |  | 24.1% |  | 
Cn1cc(F)cc([C@H]2CCCN2c2ccn3ncc(C(=O)NC(C)(C)C)c3n2)c1=O [Example 226, (R)—N-tert-butyl-5-(2-(5-fluoro-1-methyl-2-oxo-1,2-dihydropyridin-3-yl)pyrrolidin-1-yl)pyrazolo[1,5-a]pyrimidine-3-carboxamide] |  |  | 100% |  | 
CC(C)(C)NC(=O)c1cnn2ccc(N3CCC[C@@H]3c3cccc(F)c3)nc12 [Example 36, (R)—N-tert-butyl-5-(2-(3-fluorophenyl)pyrrolidin-1-yl)pyrazolo[1,5-a]pyrimidine-3-carboxamide] |  |  | 22.2% |  | 
CC(C)[C@@H](CO)NC(=O)c1cnn2ccc(N3CCC[C@@H]3c3cncc(F)c3)nc12 [Example 121, 5-((R)-2-(5-fluoropyridin-3-yl)pyrrolidin-1-yl)-N-((S)-1-hydroxy-3-methylbutan-2-yl)pyrazolo[1,5-a]pyrimidine-3-carboxamide] |  |  | 3.7% |  | 
C[C@H](NC(=O)c1cnn2ccc(N3CCC[C@@H]3c3cncc(F)c3)nc12)C(F)(F)F [Example 130, 5-((R)-2-(5-fluoropyridin-3-yl)pyrrolidin-1-yl)-N-((S)-1,1,1-trifluoropropan-2-yl)pyrazolo[1,5-a]pyrimidine-3-carboxamide] |  |  | 27.9% |  | 
